Experimental data as given in ChEMBL document CHEMBL1201862, “PubChem BioAssay data set” (2004).
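Grown in 96-well plates, cells were treated for 48 hours with each compound at five concentrations. Insufficient inhibition: endpoint recorded as highest concentration tested. The concentration for 50% growth inhibition is given as GI50.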 Active and inactive are the calls of the source. No stated cut-off is given here; in the data, active = GI50 up to about 1.1 µM and inactive = higher.

Legend:
Assay in all cases: DTP human tumour cell line panel, 48 h
NCI/ADR-RES = system: NCI/ADR-RES
SK-MEL-5 = system: SK-MEL-5
DU-145 = system: DU-145
UACC-257 = system: UACC-257
SK-OV-3 = system: SK-OV-3
OVCAR-3 = system: OVCAR-3
RPMI-8226 = system: RPMI-8226
A549 = system: A549
SW-620 = system: SW-620
SF-539 = system: SF-539
OVCAR-5 = system: OVCAR-5
UACC-62 = system: UACC-62
KM12 = system: KM12
OVCAR-8 = system: OVCAR-8
MDA-N = system: MDA-N
HOP-62 = system: HOP-62
SK-MEL-2 = system: SK-MEL-2
M14 = system: M14
Malme-3M = system: Malme-3M
HL-60 = system: HL-60

Compound	GI50 (NCI/ADR-RES)	GI50 (SK-MEL-5)	GI50 (DU-145)	GI50 (UACC-257)	GI50 (SK-OV-3)	GI50 (OVCAR-3)	GI50 (RPMI-8226)	GI50 (A549)	GI50 (SW-620)	GI50 (SF-539)	GI50 (OVCAR-5)	GI50 (UACC-62)	GI50 (KM12)	GI50 (OVCAR-8)	GI50 (MDA-N)	GI50 (HOP-62)	GI50 (SK-MEL-2)	GI50 (M14)	GI50 (Malme-3M)	GI50 (HL-60)
CC(C)(C)[Si](C)(C)OCCC1CC2(S(=O)(=O)C3=CC=C=C=C3)ON1CC2S(=O)(=O)c1ccccc1 (configuration not stated)	> 10 µM (inactive)	> 10 µM (inactive)	> 10 µM (inactive)	> 10 µM (inactive)	> 100 µM (inactive)	> 10 µM (inactive)	> 10 µM (inactive)	> 10 µM (inactive)	> 10 µM (inactive)	> 10 µM (inactive)	> 10 µM (inactive)	> 10 µM (inactive)	> 10 µM (inactive)	> 10 µM (inactive)	> 10 µM (inactive)	> 10 µM (inactive)	> 10 µM (inactive)	> 10 µM (inactive)		
C=C1C(=O)OC2CCN3CC=C(COC(=O)C(C)(O)C4(CO4)C1C)C23 (configuration not stated)	> 100 µM (inactive)	> 100 µM (inactive)	> 100 µM (inactive)	> 100 µM (inactive)	> 100 µM (inactive)			> 100 µM (inactive)	> 100 µM (inactive)			> 100 µM (inactive)	> 100 µM (inactive)	> 100 µM (inactive)	> 100 µM (inactive)		> 100 µM (inactive)	> 100 µM (inactive)	> 100 µM (inactive)	
Cn1c(=O)oc2cc(C(O)CN3CCN(Cc4ccccn4)CC3)c(Cl)cc21 (configuration not stated)	0.461 µM (active)		> 100 µM (inactive)	> 100 µM (inactive)	> 100 µM (inactive)	> 100 µM (inactive)		> 100 µM (inactive)	> 100 µM (inactive)	> 100 µM (inactive)	> 100 µM (inactive)	> 100 µM (inactive)	> 100 µM (inactive)	> 100 µM (inactive)	> 100 µM (inactive)	> 100 µM (inactive)		> 100 µM (inactive)	> 100 µM (inactive)	> 100 µM (inactive)
Cc1c(-c2ccccc2)oc(=O)c2ccccc12	28.4 µM (inactive)	18.5 µM (inactive)	37.7 µM (inactive)	15.5 µM (inactive)	22.8 µM (inactive)	20.2 µM (inactive)	16.7 µM (inactive)	25 µM (inactive)		18.3 µM (inactive)	30.8 µM (inactive)	16.9 µM (inactive)	23.4 µM (inactive)	27.1 µM (inactive)	20 µM (inactive)	22.1 µM (inactive)	20.4 µM (inactive)	22.5 µM (inactive)	21.7 µM (inactive)	
CC(C)(N)CO[C@H]1C[C@H]2CC[C@@]1(C)C2(C)C	32.4 µM (inactive)	18.2 µM (inactive)	25.9 µM (inactive)	17.8 µM (inactive)	27.8 µM (inactive)	49.8 µM (inactive)	15.7 µM (inactive)	38.5 µM (inactive)	23.7 µM (inactive)	22.4 µM (inactive)	18.5 µM (inactive)	18.2 µM (inactive)	18.1 µM (inactive)	20.6 µM (inactive)	15.5 µM (inactive)	20 µM (inactive)	18.5 µM (inactive)	16 µM (inactive)	18.2 µM (inactive)	
COc1ccc(OC)c(-c2nc(O)c3ccccc3n2)c1	98.4 µM (inactive)	74 µM (inactive)	> 100 µM (inactive)	> 100 µM (inactive)	> 100 µM (inactive)	> 100 µM (inactive)	78.3 µM (inactive)	> 100 µM (inactive)	> 100 µM (inactive)	50.7 µM (inactive)	> 100 µM (inactive)	66.8 µM (inactive)	42.4 µM (inactive)	> 100 µM (inactive)	> 100 µM (inactive)	> 100 µM (inactive)	> 100 µM (inactive)	> 100 µM (inactive)	> 100 µM (inactive)	
CN(/N=C/C=N/N(C)C1=NCCN1)C1=NCCN1	> 100 µM (inactive)	> 100 µM (inactive)	> 100 µM (inactive)	> 100 µM (inactive)	> 100 µM (inactive)	> 100 µM (inactive)		> 100 µM (inactive)	> 100 µM (inactive)	> 100 µM (inactive)	> 100 µM (inactive)	> 100 µM (inactive)	> 100 µM (inactive)	> 100 µM (inactive)	> 100 µM (inactive)	> 100 µM (inactive)		> 100 µM (inactive)	> 100 µM (inactive)	
NC(=O)NC(CC(=O)O)C(=O)O (configuration not stated)	> 100 µM (inactive)	> 100 µM (inactive)	> 100 µM (inactive)	93.3 µM (inactive)		> 100 µM (inactive)	> 100 µM (inactive)	> 100 µM (inactive)	> 100 µM (inactive)		> 100 µM (inactive)	> 100 µM (inactive)	> 100 µM (inactive)	> 100 µM (inactive)	> 100 µM (inactive)	> 100 µM (inactive)	> 100 µM (inactive)	> 100 µM (inactive)	> 100 µM (inactive)	
C=C1C[C@@H]2O[C@H]3[C@H]4[C@@H](C[C@@H](C)[C@@H](OC(C)=O)[C@H]42)[C@@H](C)CO[C@@]3(C)[C@H](OC(C)=O)C[C@H]1O	> 100 µM (inactive)	> 100 µM (inactive)	> 100 µM (inactive)	> 100 µM (inactive)	> 100 µM (inactive)	65.2 µM (inactive)		> 100 µM (inactive)	55.6 µM (inactive)	> 100 µM (inactive)	> 100 µM (inactive)	> 100 µM (inactive)	> 100 µM (inactive)	82.6 µM (inactive)	40.5 µM (inactive)		> 100 µM (inactive)	> 100 µM (inactive)	> 100 µM (inactive)	16.9 µM (inactive)
O=C(NCCC1CNc2ccccc21)OCc1ccccc1 (configuration not stated)	> 100 µM (inactive)	> 100 µM (inactive)	> 100 µM (inactive)	> 100 µM (inactive)	> 100 µM (inactive)	> 100 µM (inactive)	> 100 µM (inactive)	> 100 µM (inactive)	> 100 µM (inactive)		> 100 µM (inactive)	> 100 µM (inactive)	> 100 µM (inactive)	> 100 µM (inactive)	> 100 µM (inactive)	> 100 µM (inactive)	> 100 µM (inactive)	> 100 µM (inactive)	> 100 µM (inactive)	
COc1ccc(N2C(=O)C3c4[nH]c5ccc(C)cc5c4C4CCC(C(C)C)CC4C3C2=O)cc1 (configuration not stated)	> 100 µM (inactive)	> 100 µM (inactive)	> 100 µM (inactive)	> 100 µM (inactive)	> 100 µM (inactive)	> 100 µM (inactive)	> 100 µM (inactive)	> 100 µM (inactive)	> 100 µM (inactive)		> 100 µM (inactive)	> 100 µM (inactive)	> 100 µM (inactive)	> 100 µM (inactive)	> 100 µM (inactive)	45.4 µM (inactive)	> 100 µM (inactive)	> 100 µM (inactive)		
